This note sets out measurements from ChEMBL document CHEMBL4613212, “Insights of synthetic analogues of anti-leprosy agents” (Bioorg Med Chem, 2019).

The term inhibition denotes how much of the control response was suppressed. For orientation: Ki means a dissociation constant, usually derived from enzyme kinetics or from competition with a known ligand. A higher Ki goes with a looser hold on the target. The term MIC denotes the lowest concentration that inhibits growth of the organism.

The subject of assay [1] is Mycobacterium leprae. In words: Anti-leprotic activity against Mycobacterium leprae assessed as maximum bactericidal dilutions. The format is functional.
The subject of assay [2] is Mycobacterium tuberculosis. In words: Antitubercular activity against Mycobacterium tuberculosis H37Rv ATCC 27294 assessed as inhibition of [3H]-thymidine incorporation relative to control. The format is functional.
The subject of assay [3] is Mycobacterium tuberculosis. As to the kind of experiment: Antitubercular activity against Mycobacterium tuberculosis H37Rv ATCC 27294 assessed as growth inhibition at 6.25 ug/ml by microplate alamar blue assay relative to control. It counts as functional.
The nature of assay [4]: Inhibition of Mycobacterium smegmatis ATCC 607 dihydrofolic reductase. On the set-up: species or system Mycolicibacterium smegmatis.
Assay [5] concerns Mycolicibacterium smegmatis. In words: Antimicrobial activity against Mycobacterium smegmatis ATCC 607. It counts as functional. The note with it: Mycolicibacterium smegmatis, ATCC 607; read-out: MIC.
Assay [6] relates to Mycolicibacterium smegmatis. In words: Inhibition of Mycobacterium smegmatis ATCC 607 dihydrofolic reductase assessed as ratio of Km to Ki.
Assay [7] deals with Escherichia coli. As to the kind of experiment: Antimicrobial activity against Escherichia coli ATCC 25922 by broth microdilution assay. It counts as functional. In general terms: In broth dilution the organism is exposed to a series of concentrations in liquid medium.
In assay [8] the test system is Mycobacterium tuberculosis. As to the kind of experiment: Antitubercular activity against Mycobacterium tuberculosis H37Rv ATCC 27294 incubated for 7 days by microplate alamar blue assay. The note with it: H37Rv ATCC 27294, 168 h. The format is functional.
Assay [9] concerns Listeria monocytogenes. As to the kind of experiment: Antimicrobial activity against Listeria monocytogenes ATCC 1911 by broth microdilution assay. The format is functional.
In assay [10] the test system is Enterococcus faecalis. As to the kind of experiment: Antimicrobial activity against Enterococcus faecalis ATCC 51922 by broth microdilution assay. The format is functional.
For assay [11], the system named is Escherichia coli. In words: Antimicrobial activity against Escherichia coli ATCC 35218 by broth microdilution assay. The format is functional.
Assay [12] concerns Enterococcus faecalis. In words: Antimicrobial activity against Enterococcus faecalis ATCC 29212 by broth microdilution assay. The format is functional.
Assay [13] relates to Klebsiella pneumoniae. As to the kind of experiment: Antimicrobial activity against Klebsiella pneumoniae 700603 by broth microdilution assay. The format is functional.
The test system of assay [14] is Pseudomonas aeruginosa. In words: Antimicrobial activity against Pseudomonas aeruginosa ATCC 27853 by broth microdilution assay. The format is functional.
Assay [15] concerns Staphylococcus aureus. As to the kind of experiment: Antimicrobial activity against Staphylococcus aureus ATCC 25923 by broth microdilution assay. The format is functional.

≈ marks a conversion by molar mass, not a printed value.

`CCCCCCCC(CCC1CCCC1)C(=O)O` (stereo not drawn): the “fold change (FC)” value in [1] was found to be 170.
Same read-out and setting: the same measure for `CCCCCCCCCC(C(=O)O)C1CCCC1` (stereo not drawn): 111.
For `c1ccc(-c2ncnc3c2ncn3C2CCOCC2)cc1`, in assay [2], the “inhibition (INH)” value is on record as under 10%. Also, the inhibition at 6.25 µg/mL in [3] was 3%.
As for `Nc1nc(N)c2nc(Cc3ccccc3)cnc2n1`, in assay [4], the affinity, expressed as Ki, was 0.9 nM. Also, the MIC in assay [5] is over 794 µM. Also, in [6], the Ratio came to 4560.
On to `c1coc(-c2ncnc3c2ncn3C2CCOCC2)c1`, for which, in assay [2], the “inhibition (INH)” value was found to be 15%. Also, the inhibition at 6.25 µg/mL in [3] was 0%.
The like results for `Clc1nc(-c2ccco2)c2ncn(C3CCOCC3)c2n1` were, in that order, 36% and 6%.
In assay [4], `CC(C)Cc1cnc2nc(N)nc(N)c2n1` came in with a Ki of 0.9 nM. Moreover, the minimum inhibitory concentration (MIC) in [5] worked out at 688 µM (≈ 150 µg/mL). Further, the Ratio in assay [6] amounted to 4560.
As for `CCCCCCCCCCCC(C(=O)O)C1CCCC1` (stereo not drawn), in assay [1], the “fold change (FC)” value is recorded as 153.
As to `CCCCCCCCC(CCC1CCCCC1)C(=O)O` (stereo not drawn), the “fold change (FC)” value in assay [1] turned out to be 220.
`CN(C)c1ccc(/C=N/NC(=S)Nc2ccc(C(F)(F)F)cc2)cc1`: the MIC stood at 400 µg/mL (≈ 1090 µM) in assay [7]; 200 µg/mL (≈ 546 µM) in assay [8]; 400 µg/mL (≈ 1090 µM) in assay [9]; 400 µg/mL (≈ 1090 µM) in assay [10]; 400 µg/mL (≈ 1090 µM) in assay [11]; 400 µg/mL (≈ 1090 µM) in assay [12]. Moreover, the MIC in assay [13], in [14] and in assay [15] was 400 µg/mL (≈ 1090 µM) throughout.
Consider `CCCCCCCC(CCC1CCCCC1)C(=O)O` (stereo not drawn), for which the “fold change (FC)” value in assay [1] amounted to 160.
On to `CCCCCCCCCCC(C(=O)O)C1C=CCC1` (stereo not drawn), for which, in assay [1], the “fold change (FC)” value is on record as 167.
Take `FC(F)(F)c1ccc(NC(=S)N/N=C/c2ccc(Br)cc2)cc1`: the MIC came out at 400 µg/mL (≈ 994 µM) in assay [7]; 400 µg/mL (≈ 994 µM) in [8]; 400 µg/mL (≈ 994 µM) in assay [9]; 400 µg/mL (≈ 994 µM) in assay [10]; 800 µg/mL (≈ 1990 µM) in assay [11]; 400 µg/mL (≈ 994 µM) in [12]. Further, the MIC in [13], in [14] and in [15] was 400 µg/mL (≈ 994 µM) each time.
With `C=CCn1cnc2c(-c3ccco3)ncnc21`, the “inhibition (INH)” value in assay [2] amounted to 11%. In addition, in assay [3], the inhibition at 6.25 µg/mL came out at 7%.
`Cc1ccc(/C=N/NC(=S)Nc2ccc(C(F)(F)F)cc2)cc1`: the MIC in assay [7] came to 400 µg/mL (≈ 1190 µM); in assay [8] it was 200 µg/mL (≈ 593 µM); in assay [9] it was 800 µg/mL (≈ 2370 µM); in [10] it was 400 µg/mL (≈ 1190 µM); in assay [11], 800 µg/mL (≈ 2370 µM); in assay [12], 400 µg/mL (≈ 1190 µM). The MIC in [13], in assay [14] and in assay [15] was 400 µg/mL (≈ 1190 µM) each time.
`CCCCCCCCCC(C(=O)O)C1C=CCC1` (stereo not drawn): the “fold change (FC)” value in assay [1] came to 150.
As for `Cn1cnc2c(-c3ccco3)ncnc21`, in assay [2], the “inhibition (INH)” value is on record as under 10%. Also, in assay [3], the inhibition at 6.25 µg/mL was 0%.
For `Clc1nc(-c2cccs2)c2ncn(C3CCOCC3)c2n1`, the “inhibition (INH)” value in assay [2] is listed as 61%. In addition, the inhibition at 6.25 µg/mL in assay [3] was 7%.
Take `FC(F)(F)c1ccc(NC(=S)N/N=C/c2ccccc2)cc1`: the MIC is 400 µg/mL (≈ 1240 µM) in assay [7]; 200 µg/mL (≈ 619 µM) in assay [8]; 400 µg/mL (≈ 1240 µM) in assay [9]; 400 µg/mL (≈ 1240 µM) in [10]; 400 µg/mL (≈ 1240 µM) in assay [11]; 200 µg/mL (≈ 619 µM) in assay [12]. The MIC in [13], in assay [14] and in assay [15] was 400 µg/mL (≈ 1240 µM) each time.
`CCCCCCC(CCC1CCCC1)C(=O)O` (stereo not drawn): the “fold change (FC)” value in assay [1] worked out at 320.
Turning to `CCCCCCCCCCC(C(=O)O)C1CCCCC1` (stereo not drawn), the “fold change (FC)” value in assay [1] is reported as 180.
Consider `O=C(N[C@H](CO)[C@H](O)c1ccc([N+](=O)[O-])cc1)C(Cl)Cl` [CHLORAMPHENICOL], for which the minimal inhibitory concentration (MIC) was determined as 25 µg/mL (≈ 77.4 µM) in [7]; 100 µg/mL (≈ 309 µM) in [9]; 200 µg/mL (≈ 619 µM) in assay [10]; 100 µg/mL (≈ 309 µM) in assay [11]; 200 µg/mL (≈ 619 µM) in [12]; 200 µg/mL (≈ 619 µM) in [13]. Moreover, the MIC in [14] amounted to 200 µg/mL (≈ 619 µM); in assay [15], 100 µg/mL (≈ 309 µM).
For `COc1ccc(/C=N/NC(=S)Nc2ccc(C(F)(F)F)cc2)cc1`, the MIC was found to be 400 µg/mL (≈ 1130 µM) in [7]; 200 µg/mL (≈ 566 µM) in assay [8]; 800 µg/mL (≈ 2260 µM) in assay [9]; 400 µg/mL (≈ 1130 µM) in [10]; 800 µg/mL (≈ 2260 µM) in [11]; 400 µg/mL (≈ 1130 µM) in [12]. In addition, the minimum inhibitory concentration (MIC) in assay [13], in assay [14] and in assay [15] was 400 µg/mL (≈ 1130 µM) in each case.
Consider `c1ccc(CCn2cnc3c(-c4ccco4)ncnc32)cc1`, for which the “inhibition (INH)” value in [2] worked out at 53%. Further, the inhibition at 6.25 µg/mL in [3] was 26%.
For the molecule `FC(F)(F)c1ccc(/C=N/NC(=S)Nc2ccc(C(F)(F)F)cc2)cc1`, the MIC in assay [7] was 400 µg/mL (≈ 1020 µM); in assay [8] it was 200 µg/mL (≈ 511 µM); in assay [9] it was 800 µg/mL (≈ 2040 µM); in [10], 400 µg/mL (≈ 1020 µM); in [11], 400 µg/mL (≈ 1020 µM); in [12], 100 µg/mL (≈ 256 µM). Also, the MIC in assay [13], in assay [14] and in [15] was 400 µg/mL (≈ 1020 µM) each time.
Consider `CCCCCCCCC(CCC1CCCC1)C(=O)O` (stereo not drawn), for which the “fold change (FC)” value in assay [1] is listed as 180.
Consider `CC(C)c1ccc(/C=N/NC(=S)Nc2ccc(C(F)(F)F)cc2)cc1`, for which the MIC in assay [7] worked out at 400 µg/mL (≈ 1090 µM); in assay [8], 200 µg/mL (≈ 547 µM); in assay [9] it was 400 µg/mL (≈ 1090 µM); in assay [10], 400 µg/mL (≈ 1090 µM); in [11], 800 µg/mL (≈ 2190 µM); in [12] it was 400 µg/mL (≈ 1090 µM). Moreover, the MIC in [13], in [14] and in [15] was 400 µg/mL (≈ 1090 µM) throughout.
In the case of `c1csc(-c2[nH]cnc3ncnc2-3)c1`, the “inhibition (INH)” value in assay [2] is recorded as under 10%. Further, the inhibition at 6.25 µg/mL in assay [3] came out at 7%.
For `CCCCCCCCC(C(=O)O)C1CCCCC1` (stereo not drawn), in assay [1], the “fold change (FC)” value amounted to 110.
The same measure, in the same setting: the same measure for `CCCCCCCCCC(C(=O)O)C1CCCCC1` (stereo not drawn): 190.
For `c1coc(-c2ncnc3c2ncn3CC2CCCCC2)c1`, in [2], the “inhibition (INH)” value was 60%. The inhibition at 6.25 µg/mL in assay [3] was found to be 22%.
On to `Oc1ccc(/C=N/NC(=S)Nc2ccc(C(F)(F)F)cc2)cc1`, for which the MIC in assay [7], in assay [8], in [9], in assay [10], in [11] and in [12] was 400 µg/mL (≈ 1180 µM) each time. Moreover, the minimum inhibitory concentration (MIC) in assay [13], in assay [14] and in assay [15] was 400 µg/mL (≈ 1180 µM) each time.
As for `FC(F)(F)c1ccc(NC(=S)N/N=C/c2ccc(Cl)cc2)cc1`, the MIC in assay [7] worked out at 400 µg/mL (≈ 1120 µM); in assay [8] it was 400 µg/mL (≈ 1120 µM); in assay [9], 800 µg/mL (≈ 2240 µM); in assay [10] it was 400 µg/mL (≈ 1120 µM); in assay [11], 400 µg/mL (≈ 1120 µM); in assay [12], 400 µg/mL (≈ 1120 µM). Also, the MIC in assay [13], in [14] and in assay [15] was 400 µg/mL (≈ 1120 µM) in each case.
In the case of `N#Cc1ccc(/C=N/NC(=S)Nc2ccc(C(F)(F)F)cc2)cc1`, the minimal inhibitory concentration (MIC) in [7] came to 400 µg/mL (≈ 1150 µM); in assay [8] it was 200 µg/mL (≈ 574 µM); in assay [9] it was 400 µg/mL (≈ 1150 µM); in assay [10], 400 µg/mL (≈ 1150 µM); in [11], 400 µg/mL (≈ 1150 µM); in assay [12], 200 µg/mL (≈ 574 µM). The MIC in [13], in [14] and in [15] was 400 µg/mL (≈ 1150 µM) each time.
For `c1csc(-c2ncnc3c2ncn3C2CCOCC2)c1`, the “inhibition (INH)” value in [2] was found to be 23%. In addition, the inhibition at 6.25 µg/mL in assay [3] was 0%.
For the molecule `CCCCCCC(CCC1CCCCC1)C(=O)O` (stereo not drawn), the “fold change (FC)” value in [1] is listed as 125.
The same measure, in the same setting: for `CCCCCCCCCCC(C(=O)O)C1CCCC1` (stereo not drawn) the value was 143.
